Reference: patent US20110257206A1, “Combinations of Therapeutic Agents for Treating Cancer” (priority 2006, published 2011)

Key:
A549 = assay: Combination dose-matrix cell viability assay (CellTiter-Blue / alamar blue), synergy versus Loewe additivity, A549; type: cell-based; details: combination with Epothilone B; A549 cells; 72 hours; volume between measured and Loewe additive response surfaces; positive = synergistic
Description: The following Examples illustrate the combinations with epothilone B that show a syngeristic effect. All combinations were tested in three (3) distinct cell lines as part of this collaboration: A549, a model of non-small cell lung carcinoma; SKOV-3, a model of ovarian cancer; and SKMEL-28, a model of malignant melanoma.
Cells were cultured in T-175 flasks in complete medium (RPMI-1640, 10% FBS, 1% Penn/Strep) at 37° C. and 5% CO2. Cells were removed from the flask by brief treatment with 0.25% trypsin. Trypsin was inactivated with media and cell count was adjusted appropriately. Cells were then seeded into 384-well microtiter plates (35 μL) at 1500 (A549) or 3,000 (SKOV-3, SKMEL-28) cells/well using a multi-drop 16-24 hours prior to compound addition for general screening. […]
A solution of 5% CellTiter-Blue (Promega) viability dye in complete medium was dispensed to assay plates using a multi-drop or 384-well pipettor. […] Plates were allowed to cool to room temperature for one hour before reading fluorescence intensity at 590 nm after excitation at 540 nm in a Wallac Victor-V plate reader.
The measure of effect was the inhibition of cell viability using an alamar blue viability assay relative to the untreated level (vehicle alone). For untreated and treated levels U and T, a fractional inhibition I=1−T/U was calculated. […]

SKMEL28 = assay: Combination dose-matrix cell viability assay (CellTiter-Blue / alamar blue), synergy versus Loewe additivity, SKMEL-28; type: cell-based; details: combination with Epothilone B; SKMEL28 cells; 72 hours; volume between measured and Loewe additive response surfaces; positive = synergistic
Excerpt: The inhibition ranges from 0% at the untreated level to 100% when T=0.
This effectively calculates a volume between the measured and Loewe additive response surfaces, weighted towards high inhibition and corrected for varying dilution factors.

Row | Molecule | Synergy Score (A549) | Synergy Score (SKMEL28)
1 | O=C1C(SCCO)=C(SCCO)C(=O)c2ccccc21 [1,4-Naphthalenedione, 2,3-bis[(2-hydroxyethyl)thio]-(9CI)] | 1.233 | –
2 | Nc1nc(Cl)nc2c1ncn2C1CC(O)C(CO)O1 (stereo not drawn) [5-(6-amino-2-chloro-purin-9-yl)-2-(hydroxymethyl)oxolan-3-ol] | – | 0.999
3 | Butanedinitrile, bis[amino[(2-aminophenyl)thio]methylene]- (9CI) | 1.199 | –
